Measured values taken from patent US20100278896A1, “SOLID COMPOSITIONS” (UCL BUSINESS PLC, priority 2007, published 2010).

Key:
[1] = Comparison of irradiated and non-irradiated product (gamma radiation, HPLC)
[2] = system: Human Tenon's fibroblasts (HTF); experiment: Contraction of HTF collagen I gels (in vitro contraction model); type: cell-based; settings: for Contraction (%) of HTF collagen I gels: media without DMSO; for Contraction (%) of HTF collagen I gels, Average / Contraction (%) of HTF collagen I gels, Group 1 / Contraction (%) of HTF collagen I gels, Group 2 / Contraction (%) of HTF collagen I gels, Group 3 / Contraction (%) of HTF collagen I gels, Group 4: 2nd in vitro experiment
Protocol: Human Tenon's fibroblasts (HTF) were used for in vitro cultures. These cells are involved in subconjunctival scarring. The process of HTF isolation and proliferation was performed by using 0.5 cm^3 tissue explants from donor eyes obtained from Moorfields Hospital Eye Bank under the Tenets of the Declaration of Helsinki (1989). Explants of 0.5 cm^3 were kept for two hours in the bottom of 25 cm^3 flasks, with a coverslip placed over them. Each flask contained 5 ml of normal culture medium consisting of Dulbecco's modified Eagle's Medium (DMEM) with 10% fetal calf serum, 2 mM L-glutamine, 100 U/ml penicillin, […] gentamicin, 100 μg/ml streptomycin and 0.25 μg/ml amphotericin. The flasks were placed in incubators at 37° C. and 5% humidified CO2 in air. The culture medium was changed every 3 days and when they became confluent, usually within one month, they were passaged into new flasks for direct experimental use or were stored in liquid nitrogen.
After the HTFs reached confluence, the culture medium was aspirated and the monolayer was washed with 1 ml of trypsin 1× (Gibco) and the trypsin was quickly aspirated for about 15 seconds. Next, 2 ml of trypsin 1× (Gibco) were added to each flask and HTFs were detached from the flasks by incubation for 2 minutes at 37° C. and 5% humidified CO2 in air. After confirming by phase contrast microscopy using a Leica microscope with ×10 magnification that the cells had been detached from the bottom of the flask and that they had obtained a round shape, 2 ml of cell culture medium were added to neutralise the trypsinisation. The cell suspension was transferred to a 15 ml centrifuge tube (STARLAB GMBH) and was centrifuged at 1600 rpm for 5 minutes. The cell pellet was then resuspended in 10 ml of cell culture medium and was divided into 4 different 75 cm^3 flasks (1:4 expansion). In each flask 7.5 ml of cell culture medium were added. Flasks were placed in incubators at 37° C. and 5% humidified CO2 in air and the culture media was changed every three days. The time that was required from passage to passage in order to reach confluence was 1 week on average.
With a Neubauer plate, 6.2×10^4 HTF were counted and then were resuspended in 170 μl FBS in a 50 ml universal tube. Concentrated medium (160 μl) was added (stock solution consisting of 3.5 ml DMEM (×10 stock), 0.35 ml glutamine (2 mM stock) and 0.9 ml sodium bicarbonate (7.5% stock). 830 μl of First Link type I collagen solution collagen (stock 2.2 mg/ml in 0.6% acetic acid) were then added and the solution was mixed by swirling to avoid air bubbles. Sterile 1M NaOH (75-80 μl) was rapidly added to change the acidic pH of the solution. This caused the solution to turn a pink colour without reverting back to yellow. Quickly 150 μl collagen gel solution was cast into the wells of Mattek dishes making sure to cast the gel to the edges of the central groove using the pipette tip. Creation of air bubbles when ejecting the gel from the tip should be avoided. If air bubbles were formed, they were aspirated out. Usually, from a 1.2 ml gel suspension, 6 gels can easily be cast. Following this process, the wells of Makket dishes with the gels were placed in incubator to set for at least 10-15 min (up to 30 mins). Gels were detached from the edges of the central groove using yellow tips and excess unpolymerised solution was aspirated off. Two milliliters of cell culture medium were added and the dishes were placed in incubators at 37° C. and 5% humidified CO2 in air; the medium was replaced every 3 days.
Generally solid Ilomastat is diluted into DMSO before being added into the media, however in this experiment Ilomastat could be directly dissolved in the normal media without DMSO. […] The concentration of both samples was then confirmed by HPLC.
To compare with irradiated Ilomastat, experiments were conducted with three different treatment groups of collagen gels. Each treatment group had 3 collagen I gels with HTFs. […]

[3] = Tablet release in flow rig, pH 7.6 aqueous solution, 37° C., flow rate 2 μl/min, HPLC; type: physicochemical
Protocol: To obtain some indication of release kinetics, flow rigs of 50-200 μl capacity were used to model the bleb. An Ilomastat tablet (one tablet per rig) was placed into the flow chamber. Two tubes are connected to each rig: one was connected to a peristaltic pump to introduce an aqueous solution and the other tube allowed the removal of the solution out of the rig. Flow rates were used to model the flow of the aqueous solution into and out from the subconjunctival space to the scleral veins.
A range of flow rates was used in the rig experiments; however, in most of the experiments a flow rate of 2 μl/min was used to simulate the aqueous flow rate in the bleb. To further simulate the actual conditions in the eye, the aqueous solution used was maintained at pH 7.4-7.6 (as this is the pH of normal human aqueous humor) and the temperature was maintained at 37° C. The aqueous solution that was prepared using Oxoid® Phosphate Buffered Saline Tablets (one tablet for every 100 ml of de-ionized water). The PBS tablets were dissolved in de-ionized water and the pH was adjusted to 7.6. The aqueous solution was kept at 37° C.
The mobile phase was prepared as follows. […] When the pH was adjusted, de-ionized water was added to make the buffer volume of 1000 ml. Aliquots of each sample (0.1 ml) were transferred to HPLC vials that were then placed in the HPLC auto-sampler. […] Three injections (10 μl each) for each time point were evaluated. A computer was connected with the UV detector and with the use of the programme Chrom+, the peak area was analyzed to determine the amount of Ilomastat. […] The average of the three measurements was used to determine the amount of Ilomastat. […]
As indicated above, a tablet of solid 5-FU was fabricated using the same technique as described above. The dissolution rate of the tablet was then determined using the same rig as described above.
Each tablet was placed into the rig as described above and liquid samples analysed by HPLC and concentration of 5-FU was determined using the calibration curve. […]

[4] = system: Human Tenon's fibroblasts (HTF); settings: cited from earlier work; for contraction of HTF populated collagen gels: dose-dependent, Daniels et al., 2003
[5] = Engalytcheff et al. 2004; cited from earlier work
[6] = Dissolution of Ilomastat in pH 7.6 aqueous solution without DMSO; type: physicochemical
Protocol: The curve was created as follows. […] The stock solution was then diluted in individual containers to give six other solutions with the following concentrations: 80 μM, 60 μM, 40 μM, 20 μM, 10 μM and 5 μM. Each solution was then evaluated three times by HPLC and the absorbance was determined.
A standard tablet punch and die and a press with an applied a pressure of five bars were used.

[7] = system: rabbit bleb after trabeculectomy; settings: 17 injections in DMSO, 30 days, vs DMSO only control; cited from earlier work

For CNC(=O)[C@H](Cc1c[nH]c2ccccc12)NC(=O)[C@@H](CC(=O)NO)CC(C)C [IRRADIATED ILOMASTAT], the “trace products formed after irradiation, compared to total Ilomastat” value ([1]; 25 kGy gamma radiation, HPLC extra peak) was 0.25%, the “Contraction (%) of HTF collagen I gels” value ([2]; DAY 0) was 0% and the “Contraction (%) of HTF collagen I gels” value ([2]; DAY 1) was 12.51%. For the same molecule, the “Contraction (%) of HTF collagen I gels” value ([2]; DAY 2) was 23.65%, the “Contraction (%) of HTF collagen I gels” value ([2]; DAY 3) was 28.44% and the “Contraction (%) of HTF collagen I gels” value ([2]; DAY 4) was 30.8%. The “Contraction (%) of HTF collagen I gels” value ([2]; DAY 5) was 32.23%, the “Contraction (%) of HTF collagen I gels” value ([2]; DAY 6) was 33.76% and the “Contraction (%) of HTF collagen I gels” value ([2]; DAY 7) was 36.12%.
With CNC(=O)[C@H](Cc1c[nH]c2ccccc12)NC(=O)[C@@H](CC(=O)NO)CC(C)C [NON IRRADIATED] the “Contraction (%) of HTF collagen I gels” value ([2]; DAY 0) was 0%, the “Contraction (%) of HTF collagen I gels” value ([2]; DAY 1) was 11.96% and the “Contraction (%) of HTF collagen I gels” value ([2]; DAY 2) was 27.19%. For the same molecule, the “Contraction (%) of HTF collagen I gels” value ([2]; DAY 3) was 32.97%, the “Contraction (%) of HTF collagen I gels” value ([2]; DAY 4) was 39.9% and the “Contraction (%) of HTF collagen I gels” value ([2]; DAY 5) was 41.66%. The “Contraction (%) of HTF collagen I gels” value ([2]; DAY 6) was 42.03% and the “Contraction (%) of HTF collagen I gels” value ([2]; DAY 7) was 43.19%.
In the case of O=c1[nH]cc(F)c(=O)[nH]1 [5-FU], the release period ([3]; excipient-free 5-FU tablets A, B and C averaged) is reported as 25 h and the release kinetics ([3]; excipient-free tablets, FIGS. 9 to 13) is reported as “essentially linear release of drug over a period of many hours”.
In the case of CNC(=O)[C@@H](NC(=O)[C@H](CC(C)C)NC(=O)[C@@H](S)CCN1C(=O)N(C)C(C)(C)C1=O)C(C)(C)C [BMS-275291], the “contraction of HTF populated collagen gels” value [4] is given as “inhibition of the contraction of the gels”.
For C[C@H](CS)C(=O)N1CCC[C@H]1C(=O)O [Captopril], the “degradation caused from irradiation” value [5] is given as “not significant”.
In the case of CNC(=O)[C@H](Cc1c[nH]c2ccccc12)NC(=O)[C@@H](CC(=O)NO)CC(C)C [Ilomastat, N-[(2R)-2-(hydroxamidocarbonylmethyl)-4-methylpentanoyl]-L tryptophan methylamide], the “theoretical maximum dissolution in the aqueous solution” value [6] is reported as “about 100 μM”, the “degradation caused by gamma radiation” value ([1]; 25 KGys dose) is reported as “not significant” and the “time for which an MMP inhibitory concentration of 10 μM is maintained” value ([3]; solid dosage form of about 2 to 5 mg) is reported as “at least 30 days”. The “concentrations inhibiting in vitro contraction in collagen I gels in a dose dependent manner” value ([4]; Daniels et al. 2003, WO 95/24921) was 10 to 100 nM, the “contraction of HTF populated collagen gels” value [4] was “inhibition of the contraction of the gels” and the bleb survival [7] was “prolong significantly the bleb survival”.
For CNC(=O)[C@H](Cc1c[nH]c2ccccc12)NC(=O)[C@@H](CC(=O)NO)CC(C)C [Non-Irradiated Ilomastat with DMSO], the “Contraction (%) of HTF collagen I gels, Average” value (shortened to “Contraction (%) … Average”) ([2]; Day 1) was 19.35%, the “Contraction (%) of HTF collagen I gels, Group 1” value (shortened to “Contraction (%) … Group 1”) ([2]; Day 1) was 13.03% and the “Contraction (%) of HTF collagen I gels, Group 2” value (shortened to “Contraction (%) … Group 2”) ([2]; Day 1) was 19.45%. The “Contraction (%) of HTF collagen I gels, Group 3” value (shortened to “Contraction (%) … Group 3”) ([2]; Day 1) was 20.69%, the “Contraction (%) of HTF collagen I gels, Group 4” value (shortened to “Contraction (%) … Group 4”) ([2]; Day 1) was 24.23% and the “Contraction (%) … Average” value ([2]; Day 2) was 22.63%. For the same molecule, the “Contraction (%) … Group 1” value ([2]; Day 2) was 19.75%, the “Contraction (%) … Group 2” value ([2]; Day 2) was 22.77% and the “Contraction (%) … Group 3” value ([2]; Day 2) was 21.37%. For the same molecule, the “Contraction (%) … Group 4” value ([2]; Day 2) was 26.63%, the “Contraction (%) … Average” value ([2]; Day 3) was 23.325% and the “Contraction (%) … Group 1” value ([2]; Day 3) was 20.44%. The “Contraction (%) … Group 2” value ([2]; Day 3) was 24.14%, the “Contraction (%) … Group 3” value ([2]; Day 3) was 21.55% and the “Contraction (%) … Group 4” value ([2]; Day 3) was 27.17%. The “Contraction (%) … Average” value ([2]; Day 4) was 24.14%, the “Contraction (%) … Group 1” value ([2]; Day 4) was 21.15% and the “Contraction (%) … Group 2” value ([2]; Day 4) was 25.19%. For the same molecule, the “Contraction (%) … Group 3” value ([2]; Day 4) was 22.11%, the “Contraction (%) … Group 4” value ([2]; Day 4) was 28.11% and the “Contraction (%) … Average” value ([2]; Day 5) was 25.375%. The “Contraction (%) … Group 1” value ([2]; Day 5) was 23.36%, the “Contraction (%) … Group 2” value ([2]; Day 5) was 25.33% and the “Contraction (%) … Group 3” value ([2]; Day 5) was 22.96%. The “Contraction (%) … Group 4” value ([2]; Day 5) was 29.85%, the “Contraction (%) … Average” value ([2]; Day 6) was 27.6425% and the “Contraction (%) … Group 1” value ([2]; Day 6) was 24.42%. For the same molecule, the “Contraction (%) … Group 2” value ([2]; Day 6) was 27.9%, the “Contraction (%) … Group 3” value ([2]; Day 6) was 24.9% and the “Contraction (%) … Group 4” value ([2]; Day 6) was 33.35%. For the same molecule, the “Contraction (%) … Average” value ([2]; Day 7) was 28.2525%, the “Contraction (%) … Group 1” value ([2]; Day 7) was 25.07% and the “Contraction (%) … Group 2” value ([2]; Day 7) was 29%. The “Contraction (%) … Group 3” value ([2]; Day 7) was 24.9% and the “Contraction (%) … Group 4” value ([2]; Day 7) was 34.04%.
